In US9446039B2, “Aminoheteroaryl compounds as MTH1 inhibitors” (CEMM—FORSCHUNGSZENTRUM FÜR MOLEKULARE MEDIZIN GMBH, priority 2012, dated 2016):

Biological target: SW480 colon carcinoma cells lysate proteins (Homo sapiens, UniProt P23526)
Type: binding
Conditions: PreyGene AHCY

SW480 colon carcinoma cells lysate proteins, sequence (P23526 whole entry): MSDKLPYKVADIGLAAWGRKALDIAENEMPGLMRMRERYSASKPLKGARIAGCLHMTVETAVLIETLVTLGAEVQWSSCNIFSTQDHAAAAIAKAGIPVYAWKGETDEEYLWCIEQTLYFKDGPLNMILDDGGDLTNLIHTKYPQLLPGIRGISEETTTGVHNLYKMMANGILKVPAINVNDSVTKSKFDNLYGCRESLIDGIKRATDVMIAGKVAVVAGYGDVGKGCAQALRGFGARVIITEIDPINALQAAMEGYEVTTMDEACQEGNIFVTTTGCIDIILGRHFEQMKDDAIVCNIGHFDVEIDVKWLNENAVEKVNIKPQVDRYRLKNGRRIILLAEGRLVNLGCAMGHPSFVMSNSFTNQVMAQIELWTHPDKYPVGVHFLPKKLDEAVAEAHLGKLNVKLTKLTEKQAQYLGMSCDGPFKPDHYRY

## C[C@H](Oc1cc(-c2cnn(C3CCNCC3)c2)cnc1N)c1c(Cl)ccc(F)c1Cl [(5)-crizotinib]
  AvgP: 0.4716
  SC.Exp. 1-1: 4
  SC.Exp. 1-2: 4
  SC.Exp. 2-1: 0
  SC.Exp. 2-2: 0
  Sum (SC.Exp.): 8
